Laboratory results taken from patent publication US11400058B2, “Intravenous formulations of coenzyme Q10 (CoQ10) and methods of use thereof” (Berg LLC, priority 2010, dated 2022).

Key:
[1] = Non-GLP four-week toxicity/toxicokinetic study in macaques (Mannheimer Foundation Study 2010-01); format: in vivo, sub-adult male macaques; settings: for Tmax: male, macaque, plasma, macaques
From the text: Plasma samples for toxicokinetic analysis were collected pre-dose, and at 0.25, 1, 6, 24, and 48 hr postdose on the first day of dosing. Pre-dose, but no post-dose samples were collected on Days 7, 14, 21 and 29. […] The increases for Cmax were slightly greater than directly dose-proportional. The increases for AUC0-t were apparently substantially greater than directly dose-proportional, but the nonlinearity may be in part a reflection of the sampling schedule.

[2] = system: Caspase 3 in HDFa cells; test: Western blot for Caspase 3 protein; format: cell-based; settings: 24 hours
Protocol: For the oxygen consumption rate assay, the oxygen consumption rates in the cell lines was determined using the Seahorse apparatus. The caspase 3 activity was determined using a colorimetric method using a commercially available kit according to manufacturer's instructions. The increase in the expression of Caspase 3 as a measure of apoptosis was determined by western blotting analysis using an antibody specific for detection of Caspase 3 protein.
Caspase 3 levels were determined in various cell lines following treatment with the same two CoQ10 N formulations as used above (the first formulation included 4% CoQ10; 3% DMPC; and 93% water, and the second formulation included 4% CoQ10; 3% DMPC; 1.5% Poloxamer P188; and 91.5% water). Specifically, PC-3, HepG2, MCF-7, HDFa and MIAPACA2 cells were treated with the CoQ10 IV formulation and harvested after 24 hours of treatment. The whole cell pellets of these cells were used for Western Blots. Sample volumes equivalent to 10 μg of protein were prepared with Lamelli Loading Dye (LDS) and water and run on a 4-12% Bis-Tris Novel NuPAGE gel on two 10 lane gels (15 μL loaded per lane) as detailed below. […]

[3] = system: MCF-7; test: Effect on Bcl-2 family, p53 and caspases in breast cancer cells; format: cell-based; settings: MCF-7, 50 and 100 μM
Protocol: (§1) Effect of CoQ10 on Breast Cancer: In another in vitro study, the effect of CoQ10 (50 and 100 μM) on various members of the Bcl-2 family (bcl-2, bcl-xl, bid, bad, bak, mcl-1, bim, and bax), p53, and caspases 4, 8, 12 in two breast cancer cell lines, MCF-7 and Sk-BR3, was evaluated. The Bcl-2 protein family has been implicated as the major contributing factor to conferral of resistance to cancer therapy.

[4] = system: Sk-BR3; test: as above; format: cell-based; settings: Sk-BR3, 50 and 100 μM
Protocol: as §1

[5] = rats, oral; cited from earlier work
[6] = in vivo; settings: beagle, dog, iv
Protocol: In the second dog toxicity study, Charles River Study Number 20000334, CoQ10 IV Formulation was administered as short intravenous infusions at the rate of 5.0 mL/min three times a week for four weeks.
An additional two dogs/sex were included in each group and maintained for a 2-week recovery after treatment. A single test article concentration of 40 mg/mL was provided for use on the study. […] Parameters evaluated included cageside observations, clinical observations, body weight, food consumption, ophthalmoscopy, electrocardiography, clinical pathology, gross pathology, organ weights, and histopathology. Blood samples for determination of the plasma concentrations of CoQ10 IV Formulation were collected pre-dose and at 5, 15, 30 and 60 minutes and at 2, 4, 8 and 24 hours post-dose on Days 1 and 26.

## COC1=C(OC)C(=O)C(C/C=C(\C)CC/C=C(\C)CC/C=C(\C)CC/C=C(\C)CC/C=C(\C)CC/C=C(\C)CC/C=C(\C)CC/C=C(\C)CC/C=C(\C)CCC=C(C)C)=C(C)C1=O [CoQ10, Coenzyme Q10]
[1]; macaques, 31.25, 62.5, 125 mg/kg IV, preliminary results
  Cmax and AUC0-t versus dose: increased with increasing dose
[1]; intravenous, one animal
  Tmax: 60 min
[1]; 31.25-125 mg/kg IV, first day of dosing
  Tmax: 15 min
[2]
  intensity of Caspase 3 lower band: decreased
[3]
  apoptosis (activation of caspase 3, 6 and 9): increased apoptosis
  levels of the anti-apoptotic members (bcl-xl, mcl-1, bcl-2): significantly decreased
  protein expression of pro-apoptotic members and BH3 subfamily members (bid, bad, bax, bim, bak): upregulated
[4]
  apoptosis (activation of caspase 3, 6 and 9): increased apoptosis
  levels of the anti-apoptotic members (bcl-xl, mcl-1, bcl-2): significantly decreased
  protein expression of pro-apoptotic members and BH3 subfamily members (bid, bad, bax, bim, bak): upregulated
[5]
  orally-administered CoQ10 absorbed: 2-3%
[6]; female, 31.25 mg/kg
  AUC0-t: 1220 µg·h/mL
[6]; female, 62.5 mg/kg
  AUC0-t: 2920 µg·h/mL
[6]; female, 125 mg/kg
  AUC0-t: 12500 µg·h/mL
[6]; male, 31.25 mg/kg
  AUC0-t: 1130 µg·h/mL
[6]; male, 62.5 mg/kg
  AUC0-t: 3350 µg·h/mL
[6]; male, 125 mg/kg
  AUC0-t: 12800 µg·h/mL
